Source: patent US12599136B2, “Substituted isophthalic acid diamides and their use as herbicides” (Bayer Aktiengesellschaft, priority 2020, dated 2026)

Key:
Assay type in all cases: in vivo
[1] = test system: Abutilon theophrasti; assay: Pre-emergence herbicidal action against ABUTH; conditions: visual score after 3 weeks vs untreated controls
Summary of the method: (§1)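 Greenhouse pots of sandy loam held seeds covered with soil, onto which the compound was applied before emergence. An aqueous suspension or emulsion of WP or EC was used at 600 to 800 l/ha with 0.2% wetting agent. Percent damage was judged visually at 3 weeks.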

[2] = test system: Alopecurus myosuroides; assay: Pre-emergence herbicidal action against ALOMY; conditions: visual score after 3 weeks vs untreated controls
Summary of the method: as §1

[3] = test system: Amaranthus retroflexus; assay: Pre-emergence herbicidal action against AMARE; conditions: visual score after 3 weeks vs untreated controls
Summary of the method: as §1

[4] = test system: Avena fatua; assay: Pre-emergence herbicidal action against AVEFA; conditions: visual score after 3 weeks vs untreated controls
Summary of the method: as §1

[5] = test system: Cyperus esculentus; assay: Pre-emergence herbicidal action against CYPES; conditions: visual score after 3 weeks vs untreated controls
Summary of the method: as §1

[6] = test system: Echinochloa crus-galli; assay: Pre-emergence herbicidal action against ECHCG; conditions: visual score after 3 weeks vs untreated controls
Summary of the method: as §1

[7] = test system: Matricaria inodora; assay: Pre-emergence herbicidal action against MATIN; conditions: visual score after 3 weeks vs untreated controls
Summary of the method: as §1

[8] = test system: Pharbitis purpurea; assay: Pre-emergence herbicidal action against PHBPU; conditions: 320 g/ha; visual score after 3 weeks vs untreated controls
Summary of the method: as §1

[9] = test system: Hordeum murinum; assay: Pre-emergence herbicidal action against HORMU; conditions: 320 g/ha; visual score after 3 weeks vs untreated controls
Summary of the method: as §1

[10] = test system: Lolium rigidum; assay: Pre-emergence herbicidal action against LOLRI; conditions: 320 g/ha
Summary of the method: as §1

[11] = test system: Polygonum convolvulus; assay: Pre-emergence herbicidal action against POLCO; conditions: 320 g/ha
Summary of the method: as §1

[12] = test system: Setaria viridis; assay: Pre-emergence herbicidal action against SETVI
Summary of the method: as §1

[13] = test system: Stellaria media; assay: Pre-emergence herbicidal action against STEME
Summary of the method: as §1

[14] = test system: Veronica persica; assay: Pre-emergence herbicidal action against VERPE
Summary of the method: as §1

[15] = test system: Viola tricolor; assay: Pre-emergence herbicidal action against VIOTR
Summary of the method: as §1

[16] = test system: Abutilon theophrasti; assay: Post-emergence herbicidal action against ABUTH
Summary of the method: (§2)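 A WP or EC formulation diluted in water with 0.2% wetting agent was sprayed at 600 to 800 l/ha onto one-leaf-stage plants grown in sandy loam. About 3 weeks later, action was rated visually in percent, 100% being dead plants.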

[17] = test system: Alopecurus myosuroides; assay: Post-emergence herbicidal action against ALOMY
Summary of the method: as §2

[18] = test system: Amaranthus retroflexus; assay: Post-emergence herbicidal action against AMARE; conditions: visual assessment about 3 weeks after treatment
Summary of the method: as §2

[19] = test system: Avena fatua; assay: Post-emergence herbicidal action against AVEFA; conditions: visual assessment about 3 weeks after treatment
Summary of the method: as §2

[20] = test system: Cyperus esculentus; assay: Post-emergence herbicidal action against CYPES; conditions: visual assessment about 3 weeks after treatment
Summary of the method: as §2

[21] = test system: Echinochloa crus-galli; assay: Post-emergence herbicidal action against ECHCG; conditions: visual assessment about 3 weeks after treatment
Summary of the method: as §2

[22] = test system: Matricaria inodora; assay: Post-emergence herbicidal action against MATIN; conditions: visual assessment about 3 weeks after treatment
Summary of the method: as §2

[23] = test system: Pharbitis purpurea; assay: Post-emergence herbicidal action against PHBPU; conditions: visual assessment about 3 weeks after treatment
Summary of the method: as §2

[24] = test system: Hordeum murinum; assay: Post-emergence herbicidal action against HORMU
Summary of the method: as §2

[25] = test system: Lolium rigidum; assay: Post-emergence herbicidal action against LOLRI; conditions: 80 g/ha
Summary of the method: as §2

[26] = test system: Polygonum convolvulus; assay: Post-emergence herbicidal action against POLCO; conditions: 80 g/ha, visual assessment about 3 weeks after treatment
Summary of the method: as §2

[27] = test system: Setaria viridis; assay: Post-emergence herbicidal action against SETVI; conditions: visual assessment about 3 weeks after treatment
Summary of the method: as §2

[28] = test system: Stellaria media; assay: Post-emergence herbicidal action against STEME; conditions: visual assessment about 3 weeks after treatment
Summary of the method: as §2

[29] = test system: Veronica persica; assay: Post-emergence herbicidal action against VERPE; conditions: visual assessment about 3 weeks after treatment
Summary of the method: as §2

[30] = test system: Viola tricolor; assay: Post-emergence herbicidal action against VIOTR
Summary of the method: as §2

CCn1nnnc1NC(=O)c1ccc(C(F)(F)F)c(C(=O)N(C)CC2CC2)c1Cl [Example 2-126]
Pre-emergence action against ABUTH ([1]; 20 g/ha): 100% | Pre-emergence action against ABUTH ([1]; 80 g/ha): 100% | Pre-emergence action against ABUTH ([1]; Dosage column 320 g/ha (heading prints 3200 g/ha)): 100% | Pre-emergence action against ALOMY ([2]; 80 g/ha): 80% | Pre-emergence action against ALOMY ([2]; 320 g/ha): 100% | Pre-emergence action against AMARE ([3]; 20 g/ha): 90% | Pre-emergence action against AMARE ([3]; 80 g/ha): 100% | Pre-emergence action against AMARE ([3]; 320 g/ha): 100% | Pre-emergence action against AVEFA ([4]; 80 g/ha): 80% | Pre-emergence action against AVEFA ([4]; 320 g/ha): 100% | Pre-emergence action against CYPES ([5]; 80 g/ha): 80% | Pre-emergence action against CYPES ([5]; 320 g/ha): 90% | Pre-emergence action against ECHCG ([6]; 80 g/ha): 80% | Pre-emergence action against ECHCG ([6]; 320 g/ha): 100% | Pre-emergence action against MATIN ([7]; 20 g/ha): 80% | Pre-emergence action against MATIN ([7]; 80 g/ha): 90% | Pre-emergence action against MATIN ([7]; 320 g/ha): 100% | Pre-emergence action against PHBPU [8]: 100% | Pre-emergence action against HORMU [9]: 100% | Pre-emergence action against LOLRI [10]: 90% | Pre-emergence action against POLCO [11]: 100% | Pre-emergence action against SETVI ([12]; 80 g/ha): 100% | Pre-emergence action against SETVI ([12]; 320 g/ha): 100% | Pre-emergence action against STEME ([13]; 20 g/ha): 80% | Pre-emergence action against STEME ([13]; 320 g/ha): 90% | Pre-emergence action against VERPE ([14]; 80 g/ha): 80% | Pre-emergence action against VERPE ([14]; 320 g/ha): 90% | Pre-emergence action against VIOTR ([15]; 20 g/ha): 80% | Pre-emergence action against VIOTR ([15]; 80 g/ha): 100% | Pre-emergence action against VIOTR ([15]; 320 g/ha): 100% | Post-emergence action against ABUTH ([16]; 5 g/ha): 80% | Post-emergence action against ABUTH ([16]; 20 g/ha): 100% | Post-emergence action against ABUTH ([16]; 80 g/ha): 100% | Post-emergence action against ALOMY ([17]; 5 g/ha): 80% | Post-emergence action against ALOMY ([17]; 20 g/ha): 90% | Post-emergence action against ALOMY ([17]; 80 g/ha): 100% | Post-emergence action against AMARE in % ([18]; 5 g/ha): 100% | Post-emergence action against AMARE in % ([18]; 20 g/ha): 100% | Post-emergence action against AMARE in % ([18]; 80 g/ha): 100% | Post-emergence action against AVEFA in % ([19]; 20 g/ha): 100% | Post-emergence action against AVEFA in % ([19]; 80 g/ha): 100% | Post-emergence action against CYPES in % ([20]; 20 g/ha): 80% | Post-emergence action against CYPES in % ([20]; 80 g/ha): 90% | Post-emergence action against ECHCG in % ([21]; 5 g/ha): 90% | Post-emergence action against ECHCG in % ([21]; 20 g/ha): 100% | Post-emergence action against ECHCG in % ([21]; 80 g/ha): 100% | Post-emergence action against MATIN in % ([22]; 5 g/ha): 80% | Post-emergence action against MATIN in % ([22]; 20 g/ha): 100% | Post-emergence action against MATIN in % ([22]; 80 g/ha): 100% | Post-emergence action against PHBPU in % ([23]; 5 g/ha): 90% | Post-emergence action against PHBPU in % ([23]; 20 g/ha): 100% | Post-emergence action against PHBPU in % ([23]; 80 g/ha): 100% | Post-emergence action against HORMU in % ([24]; 5 g/ha): 80% | Post-emergence action against HORMU in % ([24]; 20 g/ha): 90% | Post-emergence action against HORMU in % ([24]; 80 g/ha): 100% | Post-emergence action against LOLRI in % [25]: 80% | Post-emergence action against POLCO in % [26]: 80% | Post-emergence action against SETVI in % ([27]; 5 g/ha): 100% | Post-emergence action against SETVI in % ([27]; 20 g/ha): 100% | Post-emergence action against SETVI in % ([27]; 80 g/ha): 100% | Post-emergence action against STEME in % ([28]; 5 g/ha): 100% | Post-emergence action against STEME in % ([28]; 20 g/ha): 100% | Post-emergence action against STEME in % ([28]; 80 g/ha): 100% | Post-emergence action against VERPE in % ([29]; 20 g/ha): 80% | Post-emergence action against VERPE in % ([29]; 80 g/ha): 90% | Post-emergence action against VIOTR in % ([30]; 5 g/ha): 100% | Post-emergence action against VIOTR in % ([30]; 20 g/ha): 100% | Post-emergence action against VIOTR in % ([30]; 80 g/ha): 100%
